Test results taken from US20230041738A1, “1H-PYRAZOLO[4,3-d]PYRIMIDINE COMPOUNDS AS TOLL-LIKE RECEPTOR 7 (TLR7) AGONISTS” (BRISTOL-MYERS SQUIBB COMPANY, priority 2020, published 2023).

What was measured:
CD69 = assay: Induction of CD69 in human whole blood (hWB); assay type: cell-based; conditions: 17 hrs at 37 C, CD69 surface staining, 100% set to 1 uM resiquimod, average where performed multiple times
Experimental: The induction of Type I interferon (IFN) MX-1 genes and the B-cell activation marker CD69 are downstream events that occur upon activation of the TLR7 pathway. The following is a human whole blood assay that measures their induction in response to a TLR7 agonist.
Heparinized human whole blood was harvested from human subjects and treated with test TLR7 agonist compounds at 1 mM. The blood was diluted with RPMI 1640 media and Echo was used to predot 10 nL per well giving a final concentration of 1 uM (10 nL in 10 uL of blood). After mixing on a shaker for 30 sec, the plates were covered and placed in a 37° C. chamber for o/n=17 hrs. Fixing/lysis buffer was prepared (5×→1× in H2O, warm at 37° C.; Cat #BD 558049) and kept the perm buffer (on ice) for later use.
For surface markers staining (CD69): prepared surface Abs: 0.045 ul hCD14-FITC (ThermoFisher Cat #MHCD1401)+0.6 ul hCD19-ef450 (ThermoFisher Cat #48-0198-42)+1.5 ul hCD69-PE (cat #BD555531)+0.855 ul FACS buffer. Added 3 ul/well, spin1000 rpm for 1 min and mixed on shaker for 30 sec, put on ice for 30 mins. Stop stimulation after 30 min with 70 uL of prewarmed 1× fix/lysis buffer and use Feliex mate to resuspend (15 times, change tips for each plate) and incubate at 37C for 10 min.
Centrifuge at 2000 rpm for 5 min aspirate with HCS plate washer, mix on shaker for 30 sec and then wash with 70 uL in dPBS and pelleted 2× s (2000 rpm for 5 min) and 50 ul wash in FACS buffer pelleted 1×s(2000 rpm for 5 min). Mix on shaker for 30 sec. For Intracellular markers staining (MX-1): Add 50 ul of BD Perm buffer III and mix on shaker for 30 sec. Incubate on ice for 30 min (in the dark). Wash with 50 uL of FACS buffer 2× (spin @2300 rpm×5 min after perm) followed by mixing on shaker for 30 sec. Resuspended in 20 ul of FACS buffer containing MX1 antibody ( )(4812)-Alexa 647: Novus Biologicals #NBP2-43704AF647) 20 ul FACS bf+0.8 ul hlgG+0.04 ul MX-1. Spin 1000 rpm for 1 min, mix on shaker for 30se and the samples were incubated at RT in the dark for 45 min followed by washing 2× FACS buffer (spin @2300 rpm×5 min after perm). Resuspend 20 ul (35 uL total per well) of FACS buffer and cover with foil and place in 4° C. to read the following day. Plates were read on iQuePlus. The results were loaded into toolset and IC50 curves are generated in curve master. The y-axis 100% is set to 1 uM of resiquimod.

human TLR7 = biological target: T1, human TLR7 (Homo sapiens, UniProt Q9NYK1); assay: Human TLR7 agonist activity assay (hTLR7 reporter, HEK-Blue TLR7 cells, SEAP); assay type: cell-based; conditions: HEK-Blue TLR7 cells with SEAP reporter, 18 h treatment; average where assay performed multiple times
T1 construct: host or cells: HEK-Blue TLR7 cells (engineered human embryonic kidney cells)
T1 sequence (Q9NYK1 27-1049): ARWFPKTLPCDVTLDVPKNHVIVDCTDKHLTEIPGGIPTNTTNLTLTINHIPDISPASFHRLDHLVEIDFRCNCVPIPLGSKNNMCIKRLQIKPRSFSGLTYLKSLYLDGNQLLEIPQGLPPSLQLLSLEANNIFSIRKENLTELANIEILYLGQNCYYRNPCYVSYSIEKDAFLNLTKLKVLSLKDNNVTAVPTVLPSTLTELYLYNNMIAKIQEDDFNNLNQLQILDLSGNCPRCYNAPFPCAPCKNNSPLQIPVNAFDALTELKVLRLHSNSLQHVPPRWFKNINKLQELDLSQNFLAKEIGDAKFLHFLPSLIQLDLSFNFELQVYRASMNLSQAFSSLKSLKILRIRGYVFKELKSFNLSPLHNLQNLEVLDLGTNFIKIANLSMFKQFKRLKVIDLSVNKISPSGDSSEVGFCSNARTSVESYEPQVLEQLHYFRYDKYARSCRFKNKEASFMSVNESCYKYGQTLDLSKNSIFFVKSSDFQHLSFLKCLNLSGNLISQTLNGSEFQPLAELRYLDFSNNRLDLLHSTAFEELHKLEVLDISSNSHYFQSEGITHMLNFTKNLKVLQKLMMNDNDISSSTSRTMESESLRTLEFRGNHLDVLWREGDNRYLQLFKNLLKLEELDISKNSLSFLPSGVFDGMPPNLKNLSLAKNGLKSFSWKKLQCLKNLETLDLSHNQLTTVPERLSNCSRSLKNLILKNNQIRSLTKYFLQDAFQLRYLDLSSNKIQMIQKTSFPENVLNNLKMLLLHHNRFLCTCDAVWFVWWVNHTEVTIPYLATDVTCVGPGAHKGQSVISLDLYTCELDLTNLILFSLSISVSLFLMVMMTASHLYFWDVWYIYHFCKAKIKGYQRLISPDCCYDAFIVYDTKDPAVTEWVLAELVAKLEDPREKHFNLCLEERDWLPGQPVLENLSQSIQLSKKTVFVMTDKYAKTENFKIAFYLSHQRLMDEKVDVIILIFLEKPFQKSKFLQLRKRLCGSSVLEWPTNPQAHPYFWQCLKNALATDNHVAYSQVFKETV
Experimental: This procedure describes a method for assaying human TLR7 (hTLR7) agonist activity of the compounds disclosed in this specification.
HEK-Blue™ TLR7 cells were added to each well of a 384-well tissue-culture plate (15,000 cells per well) and incubated 16-18 h at 37° C., 5% CO2. Compounds (100 nl) were dispensed into wells containing the HEK-Blue™ TLR cells and the treated cells were incubated at 37° C., 5% CO2. After 18 h treatment ten microliters of freshly-prepared Quanti-Blue™ reagent (Invivogen) was added to each well, incubated for 30 min (37° C., 5% CO2) and SEAP levels measured using an Envision plate reader (OD=620 nm). The half maximal effective concentration values (EC50; compound concentration which induced a response halfway between the assay baseline and maximum) were calculated.

Compound	EC50 (CD69) [nM]	EC50 (human TLR7) [nM]
CCCCNc1nc(N)nc2cnn(Cc3ccc(C(=O)N4C[C@H]5C[C@@H]4CN5C)cc3OC)c12 [Compound 110, N7-butyl-1-({2-methoxy-4-[(1R,4R)-5-methyl-2,5-diazabicyclo-[2.2.1]heptane-2-carbonyl]-phenyl}methyl)-1H-pyrazolo[4,3-d]pyrimidine-5,7-diamine]	2	378
CCCCNc1nc(N)nc2cnn(Cc3ccc(CN4C[C@H]5CN(C)C[C@H]5C4)cc3OC)c12 [Compound 103, 1-[(4-{[(3aR,6aS)-5-methyl-octa-hydropyrrolo[3,4-c]pyrrol-2-yl]methyl}-2-methoxyphenyl)methyl]-N7-butyl-1H-pyrazolo[4,3-d]pyrimidine-5,7-diamine]	–	27.8
CCC[C@@H](CCO)Nc1nc(N)nc2cnn(Cc3ccc(CN[C@H]4C[C@H]5COC[C@H]54)cc3OC)c12 [Compound 108, (3S)-3-[(5-amino-1-{[2-methoxy-4-({[(1R,5R,6S)-3-oxabicyclo-[3.2.0]heptan-6-yl]amino}methyl)phenyl]methyl}-1H-pyrazolo-[4,3-d]pyrimidin-7-yl)amino]hexan-1-ol]	–	4.9
CCCCNc1nc(N)nc2cnn(Cc3ccc(C(=O)N4C[C@H]5CNC[C@H]5C4)cc3OC(F)F)c12 [Compound 123, 1-({4-[(3aR,6aS)-octahydro-pyrrolo[3,4-c]pyrrole-2-carbonyl]-2-(difluoromethoxy)phenyl}methyl)-N7-butyl-1H-pyrazolo[4,3-d]pyrimidine-5,7-diamine]	482	2240
COc1cc(CN2C[C@@H]3C[C@H]2CN3)ccc1Cn1ncc2nc(N)nc(NCc3cc(C)on3)c21 [Compound 106, 1-[(4-{[(1S,4S)-2,5-diazabicyclo-[2.2.1]heptan-2-yl]methyl}-2-methoxyphenyl)methyl]-N7-[(5-methyl-1,2-oxazol-3-yl)methyl]-1H-pyrazolo[4,3-d]pyrimidine-5,7-diamine]	73.6	234
CCC[C@@H](CCO)Nc1nc(N)nc2cnn(Cc3ccc(CN4C[C@@H]5C[C@H]4CN5C(C)=O)cc3OC)c12 [Compound 101, 1-[(1S,4S)-5-({4-[(5-amino-7-{[(3S)-1-hydroxyhexan-3-yl]amino}-1H-pyrazolo[4,3-d]pyrimidin-1-yl)methyl]-3-methoxypheyl}-methyl)-2,5-diazabicyclo[2.2.1]-heptan-2-yl]ethan-1-one]	–	28.8
CCCCNc1nc(N)nc2cnn(Cc3ccc(CN4C[C@H]5CCS(=O)(=O)[C@H]5C4)cc3OC)c12 [Compound 104, (3aR,6aR)-5-[(4-{[5-amino-7-(butyl-amino)-1H-pyrazolo[4,3-d]pyrimidin-1-yl]methyl}-3-methoxyphenyl)methyl]-hexahydro-2H-1λ6-thieno[2,3-c] pyrrole-1,1-dione]	–	197
CCC[C@@H](CCO)Nc1nc(N)nc2cnn(Cc3ccc(CNC4[C@H]5COC[C@@H]45)cc3OC)c12 (stereo partly drawn) [Compound 107, (3S)-3-[(5-amino-1-{[2-methoxy-4-({[(1R,5S,6S)-3-oxabicyclo[3.1.0]-hexan-6-yl]amino}methyl)phenyl]-methyl}-1H-pyrazolo[4,3-d]pyrimidin-7-yl)amino]hexan-1-ol]	–	5.3
CCC[C@@H](CCO)Nc1nc(N)nc2cnn(Cc3ccc(CN4C[C@@H]5OCC[C@@H]54)cc3OC)c12 [Compound 109, (3S)-3-({5-amino-1-[(2-methoxy-4-{[(1S,5S)-2-oxa-6-azabicyclo-[3.2.0]heptan-6-yl]methyl}phenyl)-methyl]-1H-pyrazolo[4,3-d]pyrimidin-7-yl}amino)hexan-1-ol]	–	2.2
CCCCNc1nc(N)nc2cnn(Cc3ccc(CN4C5CNCC4C5)cc3OC)c12 [Compound 102, N7-butyl-1-{[4-({3,6-diazabicyclo-[3.1.1]heptan-6-yl}methyl)-2-methoxyphenyl]methyl}-1H-pyrazolo-[4,3-d]pyrimidine-5,7-diamine]	–	89.6

The remaining lines, values ahead:

EC50 (CD69) [nM]	EC50 (human TLR7) [nM]	Compound
13.2	576	COc1cc(CN2C[C@H]3C[C@@H]2CN3C)ccc1Cn1ncc2nc(N)nc(N[C@H](CO)CC3CC3)c21 [Compound 137, (2S)-2-({5-amino-1-[(2-methoxy-4-{[(1R,4R)-5-methyl-2,5-diaza-bicyclo[2.2.1]heptan-2-yl]methyl}-phenyl]methyl]-1H-pyrazolo[4,3-d]pyrimidin-7-yl}amino)-3-cyclopropylpropan-1-ol]
–	301	CCC[C@@H](CCO)Nc1nc(N)nc2cnn(Cc3ccc(C(=O)N4C[C@H]5C[C@@H]4CN5C)cc3OC(F)F)c12 [Compound 125, (3S)-3-[(5-amino-1-{[2-(difluoro-methoxy)-4-[(1R,4R)-5-methyl-2,5-diazabicyclo[2.2.1]heptane-2-carbonyl]phenyl]methyl}-1H-pyrazolo[4,3-d]pyrimidin-7-yl)amino]hexan-1-ol]
–	82	CCC[C@@H](CCO)Nc1nc(N)nc2cnn(Cc3ccc(C(=O)N4C[C@H]5CN(C)C[C@H]5C4)cc3OC(F)F)c12 [Compound 124, (3S)-3-{[1-({4-[(3aR,6aS)-5-methyl-octahydropyrrolo[3,4-c]pyrrole-2-carbonyl]-2-(difluoromethoxy)-phenyl}methyl)-5-amino-1H-pyra-zolo[4,3-d]pyrimidin-7-yl]amino}-hexan-1-ol]
–	1230	COc1cc(CN2C[C@@H]3C[C@H]2CN3CCO)ccc1Cn1nc(C)c2nc(N)nc(NCc3noc(C)n3)c21 [Compound 142, 2-[(1S,4S)-5-({4-[(5-amino-3-methyl-7-{[(5-methyl-1,2,4-oxadiazol-3-yl)methyl]amino}-1H-pyrazolo-[4,3-d]pyrimidin-1-yl)methyl]-3-methoxyphenyl}methyl)-2,5-diaza-bicyclo[2.2.1]heptan-2-yl]ethan-1-ol]
–	287	COc1cc(CNC23CC(C2)C3)ccc1Cn1ncc2nc(N)nc(NCc3cc(C)on3)c21 [Compound 126, 1-({4-[({bicyclo[1.1.1]pentan-1-yl}amino)methyl]-2-methoxy-phenyl}methyl)-N7-[(5-methyl-1,2-oxazol-3-yl)methyl]-1H-pyra-zolo[4,3-d]pyrimidine-5,7-diamine]
